The test system of series [1] is HCV replication in Huh7_HBI10A cells containing a HCV-replicon. Kind of series: RHEPLISA assay, cell-based assay for measuring HCV replication (NS3 ELISA). Set-up: species or system hepatitis C virus. As to conditions: at 40 μM. Here is the method:
A cell-based assay for measuring the HCV replication (RHEPLISA) was developed in a 96-well microplate format. The assay utilizes Huh-7 cellular clone (Huh7_HBI10A) containing a HCV-replicon and is based on the detection of the viral NS3 protein by ELISA. About 5000 Huh7_HBI10A cells (or Huh-7 cells as negative control), resuspended in 100 μL of complete DMEM were seeded into each well of a 96 well microtiter plate (Falcon sterile by Becton Dickinson). After 4 hours, 50 μL of an appropriate dissolution medium (e.g., DMEM) containing the compounds to test or DMSO (3%) were added, and incubated (37° C., 5% CO2) for 4 days. The medium was removed by inversion and the cells were fixed by addition of 200 μ/well of ice-cold isopropanol 100%. […]
When secondary antibody AP-conjugated was used, 100 μL of AP substrate (SIGMA 104 Phosphatase substrate tablets; i.e., one tablet in 5 ml of AP buffer: diethanolamine solution 10%, pH 9.6-9.8.) were added to each well, and the plate was read in a conventional ELISA plate reader set at 405-620 nm.
When peroxidase-conjugated secondary was used, 100 μL of TMB substrate (SIGMA) were added to each well, and the plate was incubated for 20′ in the dark. 50 μL of 0.5M H2SO4 were then added, and the plate was read in a conventional ELISA plate reader set at 450-620 nm.

Series [2] concerns Huh7_HBI10A cells. Kind of series: Cytotoxicity assay (SRB). The format is cell-based, human. As to conditions: at 40 μM. Here is the method: About 5000 Huh7_HBI10A cells, resuspended in 100 μL of complete DMEM were seeded into each well of a 96 well microtiter plate (Falcon sterile by Becton Dickinson) and incubated (37° C., 5% CO2) for 24 hours. The medium was removed and the cells were fixed by incubation with 50 μL of 50% TCA for 1 hour at 4° C., 200 μL of ice-cold isopropanol 100% for 20 minutes at 4° C., or 100 μL of 10% paraformaldehyde for 20 minutes at room temperature. The plate was washed with water when either TCA or paraformaldehyde was used to fix the cells and with PBS 1× when isopropanol was used to fix the cells. All washings were run 3 times. After drying the plate, 200 μL of SRB 1× solution (prepared fresh from a SRB solution 10×: 4% sulforhodamine B (Sigma) in 10% acetic acid) was added to each well and incubated for 30 minutes at room temperature. The SRB 1× solution was removed by inversion and the plate was washed in 1% acetic acid 3 times. To each well was added 200 μL of 10 mM Tris pH 10.5, the plate was shaken till the color of the solution in the wells was uniform, and the plate was read in a conventional ELISA plate reader set at 570 nm.

Regarding `NC(=S)NN=Cc1ccccc1` [benzaldehyde thiosemicarbazone], the “anti-HCV activity in the RHEPLISA assay” value in series [1] was “no anti-HCV activity”. In addition, the cytotoxic inhibition entry in series [2] was “no cytotoxic inhibition”.
